Data from US12419307B2, “Mixtures comprising indazole pesticides” (FMC Corporation, priority 2019, dated 2025).

Experiments:
Type in all cases: in vivo
[1] = system: fall armyworm (Spodoptera frugiperda (J. E. Smith)); experiment: Test E: fall armyworm control on corn plants, plant damage rating and mortality after 6 days
Method: (§1) The pest control protection afforded by the mixtures or compositions is not limited, however, to these species. The analysis of enhanced activity between the mixtures or compositions was determined using Colby's equation. The average % mortality data for the test compounds alone were inserted into the Colby's equation. If the observed (obs) average % mortality was higher than “p”, the expected (exp) % mortality, the mixture or composition had enhanced effects. If the observed average % mortality was equal to or lower than the expected mortality, the mixture or composition either had no enhanced effect. For bioassays where insect feeding damage was evaluated, enhanced activity is identified when the observed plant damage is less than the expected plant damage rating; ratings ranged between 0 (no damage) and 10 (dead plant) and each value was converted to a % plant protection. 100−(Obs Plant Damage*10)
For evaluating control of fall armyworm (Spodoptera frugiperda (J. E. Smith)) the test unit consisted of a small open container with a 4-5-day-old corn (maize) plant inside. This was pre-infested with 10-15 1-day-old larvae on a piece of insect diet. Test compounds were formulated and sprayed with 3 replications as described for Test A. After spraying of the formulated test compound, the test units were maintained in a growth chamber for 6 days at 25° C. and 70% relative humidity. Plant feeding damage was then visually assessed based on foliage consumed, and larvae were assessed for mortality. Each test unit was then visually assessed for plant damage and rated 0-10, where 0=undamaged and 10=plant is dead; the results are listed in Tables 6d-i.

[2] = system: cotton melon aphid (Aphis gossypii Glover); experiment: Test D: cotton melon aphid control on okra plants, insect mortality after 6 days
Method: The analysis of enhanced activity between the mixtures or compositions was determined using Colby's equation. The average % mortality data for the test compounds alone were inserted into the Colby's equation. If the observed (obs) average % mortality was higher than “p”, the expected (exp) % mortality, the mixture or composition had enhanced effects. If the observed average % mortality was equal to or lower than the expected mortality, the mixture or composition either had no enhanced effect. For bioassays where insect feeding damage was evaluated, enhanced activity is identified when the observed plant damage is less than the expected plant damage rating; ratings ranged between 0 (no damage) and 10 (dead plant) and each value was converted to a % plant protection. 100−(Obs Plant Damage*10)
For evaluating control of cotton melon aphid (Aphis gossypii Glover) through contact and/or systemic means, each test unit consisted of a small open container with a 6- to 7-day-old okra plant inside. This was pre-infested by placing on a leaf of the test plant 30 to 40 aphids on a piece of leaf excised from a culture plant (cut-leaf method). The […] moved onto the test plant as the leaf piece desiccated. After pre-infestation, the soil of the test unit was covered with a layer of sand.
Test compounds were formulated and sprayed as described for Test A. The applications were replicated three times. After spraying of the formulated test compounds, each test unit was allowed to dry for 1 hour and then a black, screened cap was placed on top. […]

[3] = system: silverleaf whitefly (Bemisia argentifolii Bellows and Perring); experiment: Test A: silverleaf whitefly control on cotton or soybean plants, spray, insect mortality after 13 days; conditions: for % Mortality (obs): applied alone
Method: as §1
For evaluating control of silverleaf whitefly (Bemisia argentifolii Bellows and Perring) through contact and/or systemic means, each test unit consisted of a small open container with a 12- to 14-day-old cotton plant or 5-7 day old soybean plant inside. This was pre-infested by placing test units into cages containing adult whiteflies so that oviposition on the cotton leaves could occur. The adults were removed from the plants with an air-blast nozzle, and the test units were capped. The test units were then stored 2 to 3 days before spraying.
Test compounds were formulated using a solution containing 10% acetone, 90% water and 300 ppm Activator 90@ Spreader Lo-Foam Formula non-ionic surfactant containing alkylarylpolyoxyethylene, free fatty acids, glycols and 2-propanol (Loveland Industries, Inc.) to provide the desired concentration in ppm. Formulated test solutions were then applied in 1 mL volumes through a SUJ2 atomizer nozzle with ⅛ JJ custom body (Spraying Systems Co.) positioned 1.27 cm (0.5 inches) above the top of each test unit.
The results for all experimental compositions in this test were replicated three times. After spraying of the formulated test composition, each test unit was allowed to dry for 1 hour and the cap removed. The test units were held for 13 days in a growth chamber at 28° C. and 50-70% relative humidity.

[4] = system: corn planthopper (Peregrinus maidis (Ashmead)); experiment: Test C: corn planthopper control on corn plants, insect mortality after 6 days; conditions: for % Mortality (obs): Table 4e
Method: as §1
For evaluating control of corn planthopper (Peregrinus maidis (Ashmead)) through contact and/or systemic means, the test unit consisted of a small open container with a 3-4-day-old corn (maize) plant inside. White sand was added to the top of the soil prior to application of the test compound.
Test compounds were formulated and sprayed at 250 and/or 50 ppm and/or 10 ppm. After spraying of the formulated test compound, the test units were allowed to dry for 1 h before they were post-infested with ˜15-20 nymphs (18-to-21-day-old). […]

[5] = system: Western Flower Thrips (Frankliniella occidentalis Pergande); experiment: Test B: Western Flower Thrips control on bean plants, plant damage rating converted to % plant protection after 7 days
Method: as §1
Thus, a plant given a plant damage rating of 3 out of 10 is equivalent to 70% plant protection In all of these tests, compounds of Formula I are Compounds 1 (Cpd 1), 2 (Cpd2), and 3 (Cpd3) and compounds of Formula II are compounds 4 (Cpd4) and 5 (Cpd 5).
For evaluating control of the Western Flower Thrips (Frankliniella occidentalis Pergande) through contact and/or systemic means, each test unit consisted of a small open container with a 5- to 7-day-old bean (var. Soleil) plant inside.
Test solutions were formulated and sprayed with 3 replications as described for Test A. After spraying, the test units were allowed to dry for 1 hour, 22 to 27 adult thrips were added to each unit and then a black, screened cap was placed on top. The test units were held for 7 days at 25° C. and 45-55% relative humidity. To evaluate the level of plant protection provided by each treatment, each test unit was then visually assessed for plant damage inflicted by insect feeding and rated 0-10, where 0=undamaged and 10=plant is dead; the results are listed in Tables 3a-g.

[6] = system: Potato Leafhopper (Empoasca fabae Harris); experiment: Test C: Potato Leafhopper control on bean plants, insect mortality after 6 days; conditions: read-out: % Mortality (obs)
Method: as §1
For evaluating control of Potato Leafhopper (Empoasca fabae Harris) through contact and/or systemic means, each test unit consisted of a small open container with a 5- to 6-day-old Longio bean plant (primary leaves emerged) inside. White sand was added to the top of the soil, and one of the primary leaves was excised prior to application. Test compounds were formulated and sprayed with 3 replications as described for Test A. After spraying, the test units were allowed to dry for 1 hour before they were infested with 5 potato leafhoppers (18- to 21-day-old adults). A black, screened cap was placed on the top of each container. The test units were held for 6 days in a growth chamber at 19-21° C. and 50-70% relative humidity.

[7] = Spodoptera frugiperda, 144 h, read-out: Plant Protection (obs)
[8] = Aphis gossypii, read-out: % Mortality (obs)
[9] = Bemisia argentifolii, read-out: % Mortality (obs)
[10] = Peregrinus maidis, read-out: % Mortality (obs)
[11] = Peregrinus maidis, 96 h, read-out: % Mortality (obs)

O=C(NC(=O)c1c(F)cccc1F)Nc1ccc(OC(F)(F)C(F)OC(F)(F)F)c(Cl)c1 (centres unmarked) [Novaluron, novaluron, reference compound]
pest or weed control at 0.21 ppm [1, 7]: 33.3% | pest or weed control at 0.36 ppm [1, 7]: 80%

CCc1nn(C)c(C(=O)NCc2ccc(Oc3ccc(C)cc3)cc2)c1Cl [Tolfenpyrad, tolfenpyrad, reference compound]
mortality at 0.192 ppm [2, 8]: 29% | mortality at 0.753 ppm [2, 8]: 61.9%

CC(COc1ccc(Oc2ccccc2)cc1)Oc1ccccn1 (centres unmarked) [Pyriproxyfen, pyriproxyfen, reference compound]
mortality at 0.053 ppm [3, 9]: 68%

N#Cc1nn(-c2c(Cl)cc(C(F)(F)F)cc2Cl)c(N)c1[S+]([O-])C(F)(F)F (centres unmarked) [Fipronil, fipronil, reference compound]
mortality at 0.78 ppm [4, 10]: 65.2% | mortality at 1.197 ppm [4, 10]: 85.5%

CCOCn1c(-c2ccc(Cl)cc2)c(C#N)c(Br)c1C(F)(F)F [Chlorfenapyr, chlorfenapyr, reference compound]
pest or weed control at 3.7 ppm [1, 7]: 66.7% | pest or weed control at 5 ppm [1, 7]: 53.3%

emamectin benzoate [reference compound]
Plant Protection (obs) ([1]; Table 6f, 0.03 ppm): 43.3 | Plant Protection (obs) ([1]; Table 6f, 0.06 ppm): 23.3

COc1cccc(C(=O)NN(C(=O)c2cc(C)cc(C)c2)C(C)(C)C)c1C [Methoxyfenozide, methoxyfenozide, reference compound]
pest or weed control at 2.8 ppm [1, 7]: 36.7%

Cc1c(COC(=O)[C@@H]2[C@H](/C=C(\Cl)C(F)(F)F)C2(C)C)cccc1-c1ccccc1 (racemic) [Bifenthrin, bifenthrin, reference compound]
pest or weed control at 50 ppm ([5]; Frankliniella occidentalis, 168 h, Table 3f, 50 ppm, read-out: Plant Protection (obs)): 36.7% | pest or weed control at 250 ppm ([5]; Frankliniella occidentalis, 168 h, Table 3f, 250 ppm, read-out: Plant Protection (obs)): 70% | mortality at 50 ppm [2, 8]: 28.7% | mortality at 250 ppm [2, 8]: 58.2% | mortality at 50 ppm [3, 9]: 0% | mortality at 250 ppm [3, 9]: 0%

CNC(=O)c1cc(Cl)cc(C)c1NC(=O)c1cc(Br)nn1-c1ncccc1Cl [Chlorantraniliprole, chlorantraniliprole, reference compound]
pest or weed control at 2.08 ppm ([5]; Frankliniella occidentalis, 168 h, Table 3e, 2.08 ppm, read-out: Plant Protection (obs)): 63.3% | pest or weed control at 28.7 ppm ([5]; Frankliniella occidentalis, 168 h, Table 3e, 28.7 ppm, read-out: Plant Protection (obs)): 60% | mortality at 0.23 ppm [2, 8]: 21% | mortality at 0.63 ppm [2, 8]: 42.3% | mortality at 0.54 ppm [3, 9]: 0% | mortality at 189.1 ppm [3, 9]: 59.2%

O=C1C=C(N(Cc2ccc(Cl)nc2)CC(F)F)CO1 [Flupyradifurone, 4-[[(6-chloro-3-pyridinyl)methyl](2,2-difluoroethyl)amino]-2(5H)-furanone, reference compound]
mortality at 0.02 ppm [2, 8]: 23.4% | mortality at 0.075 ppm [2, 8]: 48%

N#CCNC(=O)c1cnccc1C(F)(F)F [Flonicamid, flonicamid, reference compound]
% Mortality (obs) ([2]; Table 5k, 0.027 ppm): 24.2% | % Mortality (obs) ([2]; Table 5k, 0.267 ppm): 49.3%

O=[N+]([O-])NC1=NCCN1Cc1ccc(Cl)nc1 [Imidacloprid, imidacloprid, reference compound]
mortality at 0.09 ppm [4, 11]: 29.2% | mortality at 0.16 ppm [4, 11]: 20% | Plant Protection (obs) ([5]; Table 3c, applied alone, 6.4 ppm): 66.7% | Plant Protection (obs) ([5]; Table 3c, applied alone, 10.9 ppm): 86.7% | mortality at 0.05 ppm [2, 8]: 33.3% | mortality at 0.1 ppm [2, 8]: 6.7% | mortality at 15.1 ppm [3, 9]: 0% | mortality at 21.15 ppm [3, 9]: 24.7% | mortality at 0.82 ppm [6]: 53.3% | mortality at 2.25 ppm [6]: 40%

C/C(=N\C#N)N(C)Cc1ccc(Cl)nc1 [Acetamiprid, acetamiprid, reference compound]
Plant Protection (obs) ([5]; Table 3b, applied alone, 5.49 ppm): 30.0% | Plant Protection (obs) ([5]; Table 3b, applied alone, 7.04 ppm): 70.0% | mortality at 0.03 ppm [2, 8]: 21.1% | mortality at 0.06 ppm [2, 8]: 45.1% | mortality at 2.52 ppm [3, 9]: 6.5% | mortality at 6.88 ppm [3, 9]: 25.4%

spinetoram [reference compound]
% Mortality (obs) ([4]; 8.46 ppm): 7.5% | % Mortality (obs) ([4]; 20.79 ppm): 14.1% | % Mortality (obs) ([2]; Table 5f, 50 ppm): 51.2% | % Mortality (obs) ([2]; Table 5f, 250 ppm): 73.9% | % Mortality (obs) ([3]; Table 2h, 5 ppm): 0% | % Mortality (obs) ([3]; Table 2h, 29.5 ppm): 64.4%

CNC(=O)ON=C(C)SC [Methomyl, methomyl, reference compound]
pest or weed control at 8.5 ppm [1, 7]: 43.3%

CC(C)N1C(=O)N(c2ccccc2)CS/C1=N\C(C)(C)C [Buprofezin, buprofezin, reference compound]
mortality at 0.524 ppm [4, 10]: 83.7% | mortality at 0.984 ppm [4, 10]: 94.6%

CCOP(=S)(OCC)Oc1nc(Cl)c(Cl)cc1Cl [Chlorpyrifos, chlorpyrifos, reference compound]
mortality at 0.173 ppm [2, 8]: 17.7% | mortality at 0.624 ppm [2, 8]: 37.9%

CC1(C)C(C=C(Cl)Cl)C1C(=O)OCc1cccc(Oc2ccccc2)c1 (centres unmarked) [Permethrin, permethrin, reference compound]
mortality at 0.0004 ppm [2, 8]: 15.6% | mortality at 0.04 ppm [2, 8]: 32.1%

COC(=O)N(C(=O)N1CO[C@@]2(C(=O)OC)Cc3cc(Cl)ccc3C2=N1)c1ccc(OC(F)(F)F)cc1 [Indoxacarb, indoxacarb, reference compound]
Plant Protection (obs) ([5]; Table 3g, 50 ppm): 10.0 | Plant Protection (obs) ([5]; Table 3g, 250 ppm): 36.7 | % Mortality (obs) ([2]; Table 5h, 50 ppm): 23.4% | % Mortality (obs) ([2]; Table 5h, 250 ppm): 37.5% | Plant Protection (obs) ([1]; Table 6e, 0.2 ppm): 70 | Plant Protection (obs) ([1]; Table 6e, 0.5 ppm): 70 | % Mortality (obs) ([3]; Table 2g, 50 ppm): 1.2% | % Mortality (obs) ([3]; Table 2g, 250 ppm): 0%
